Experimental data from paper PMC5100701 (Bioconjugate chemistry, 2016).
Like-named read-outs stand apart in the source and are kept apart here.

How the values were obtained:
human MMP-12 [1] = biological target: T1, human MMP-12 (Homo sapiens, UniProt P39900); test: in vitro binding; assay type: biochemical; settings: read-out: Ki (nM)/hMMP12; 50 mM Tris/HCl buffer, pH 6.8, 10 mM CaCl2, 25 °C; mean ± SD of three experiments
atherosclerotic plaque = settings: mouse model of atherosclerosis; cited from earlier work
human MMP-12 [2] = biological target: T1, human MMP-12; test: ability to block MMP-12 activity in presence of human serum albumin; assay type: biochemical; settings: hSA 5 μM
human MMP-12 [3] = biological target: T1, human MMP-12; settings: read-out: Ki toward human MMP-12; cited from earlier work
[4] = biodistribution: tissue fluorescence in harvested organs; assay type: in vivo, C57BL/6 mice; settings: organs harvested 4h post-injection, 1 nmol injected
[5] = blood clearance after intravenous injection in mice; assay type: in vivo; settings: C57BL/6 mice, 1 nmol injected, n=3, 4h post-injection
[6] = LC/MS analysis of mouse urine; assay type: in vivo, C57BL/6 mice; settings: mouse urine 4h after injection

T1 sequence (P39900 106-470): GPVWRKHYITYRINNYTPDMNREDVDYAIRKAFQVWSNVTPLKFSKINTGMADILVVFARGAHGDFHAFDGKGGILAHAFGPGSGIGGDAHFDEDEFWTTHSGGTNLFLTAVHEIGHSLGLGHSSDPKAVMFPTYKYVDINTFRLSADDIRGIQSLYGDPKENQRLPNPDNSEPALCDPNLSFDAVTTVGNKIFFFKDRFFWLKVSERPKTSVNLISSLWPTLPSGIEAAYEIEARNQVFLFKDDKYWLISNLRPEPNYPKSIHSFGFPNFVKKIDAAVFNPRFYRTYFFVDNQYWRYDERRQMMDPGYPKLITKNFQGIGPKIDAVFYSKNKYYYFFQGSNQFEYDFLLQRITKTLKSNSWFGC

Structure (SMILES): NC(=O)[C@H](CCC(=O)O)NC(=O)[C@H](CCC(=O)O)NC(=O)[C@H](Cc1cc(-c2ccc(-c3cccc(Cl)c3)cc2)no1)CP(=O)(O)c1ccc(Br)cc1 [RXP470.1, reference compound]
- Ki (human MMP-12 [1]): 0.26 ± 0.05 nM
- effect on atherosclerotic plaque (atherosclerotic plaque): inhibit atherosclerotic plaque growth
- shift of Ki in presence of human serum albumin (human MMP-12 [2]): 8.5 fold
- Ki (human MMP-12 [3]): 0.26 nM

Structure (SMILES): CC[N+]1=C(C=CC=CC=C2N(CCCCCC(=O)NCCOCCOCCNC(=O)[C@H](CCC(=O)O)NC(=O)[C@H](CCC(=O)O)NC(=O)[C@H](Cc3cc(-c4ccc(-c5cccc(Cl)c5)cc4)no3)CP(=O)(O)c3ccc(Br)cc3)c3ccc4c(S(=O)(=O)O)cc(S(=O)(=O)[O-])cc4c3C2(C)C)C(C)(C)c2c1ccc1c(S(=O)(=O)O)cc(S(=O)(=O)O)cc21 [probe 1]
- shift of Ki in presence of human serum albumin (human MMP-12 [2]): 88 fold
- tissue fluorescence in liver, spleen, kidneys and lungs [4]: higher fluorescence signals in the kidneys relative to the liver
- percentage of injected dose remaining in the bloodstream 4h post-injection [5]: 25.1±2.9 %ID

Structure (SMILES): CC1(C)C(=CC=C2CCCC(C=CC3=[N+](CCCCCC(=O)NCCOCCOCCNC(=O)[C@H](CCC(=O)O)NC(=O)[C@H](CCC(=O)O)NC(=O)[C@H](Cc4cc(-c5ccc(-c6cccc(Cl)c6)cc5)no4)CP(=O)(O)c4ccc(Br)cc4)c4ccc(S(=O)(=O)O)cc4C3(C)C)=C2Oc2ccc(S(=O)(=O)O)cc2)N(CCCCS(=O)(=O)O)c2ccc(S(=O)(=O)[O-])cc21 [probe 4]
- conversion into a second metabolite in urine [6]: about 50%
- tissue fluorescence in liver, spleen, kidneys and lungs [4]: cleared by the kidneys, but its uptake by the liver is not negligible
